Results reported in patent US8741836B2, “Polypeptides” (Novo Nordisk A/S, priority 2011, dated 2014).
Starred links: 1 amine or outer side, 2 acyl side, 3 side chain; linkers in the order of their positions; H or OH if unused. Positions of bridges follow the written chain, without caps; N, C: chain ends. Non-standard residues stand in square brackets, D forms with d. Residues, ends and D or L forms follow the SMILES beside them. *: point of attachment. C20 diacid = O=C(O)CCCCCCCCCCCCCCCCCCC(=O)*; C18 diacid = O=C(O)CCCCCCCCCCCCCCCCC(=O)*; γGlu = O=C(O)[C@H](CCC(=O)[*:2])N[*:1]; Orn = NCCC[C@H](N)C(=O)O; AEEA = NCCOCCOCC(=O)O

System: ad libitum fed rat
Experiment: Assay (I) efficacy testing on appetite (food intake) using an ad libitum fed rat model
Type: in vivo, Sprague Dawley (SD) rats
Conditions: 3 nmol/kg
Outline: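 Ad libitum fed Sprague Dawley rats, 200-250 g, singly housed on reversed light cycle, got one ip, po or sc dose of 0.01-3 mg/kg just before lights off; groups of 5-8 with vehicle control. Food intake recorded hourly for 7 h, then at 24 h and sometimes 48 h; Grubbs outliers excluded.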

CC[C@H](C)[C@H](NC(=O)[C@@H]1CCCN1C(=O)CNC(=O)[C@H](Cc1ccccc1)NC(=O)[C@H](CC(N)=O)NC(=O)[C@H](CC(N)=O)NC(=O)[C@H](CO)NC(=O)[C@H](CO)NC(=O)[C@H](Cc1c[nH]cn1)NC(=O)[C@H](Cc1c[nH]cn1)NC(=O)[C@H](CC(C)C)NC(=O)[C@H](Cc1ccccc1)NC(=O)[C@H](CCC(=O)O)NC(=O)[C@H](C)NC(=O)[C@H](CC(C)C)NC(=O)[C@H](CCCNC(=N)N)NC(=O)[C@H](CCC(N)=O)NC(=O)[C@@H](NC(=O)[C@H](C)NC(=O)[C@@H]1CSSC[C@H](NC(=O)[C@H](CCC(=O)O)NC(=O)CC[C@H](NC(=O)CCCCCCCCCCCCCCCCCCC(=O)O)C(=O)O)C(=O)N[C@@H](CC(N)=O)C(=O)N[C@@H]([C@@H](C)O)C(=O)N[C@@H](C)C(=O)N[C@@H]([C@@H](C)O)C(=O)N1)[C@@H](C)O)C(=O)N[C@@H](CC(C)C)C(=O)N1CCC[C@H]1C(=O)N1CCC[C@H]1C(=O)N[C@H](C(=O)N[C@@H](CC(N)=O)C(=O)N[C@H](C(=O)NCC(=O)N[C@@H](CO)C(=O)N[C@@H](CC(N)=O)C(=O)N[C@H](C(=O)N[C@@H](Cc1ccc(O)cc1)C(N)=O)[C@@H](C)O)C(C)C)[C@@H](C)O [Example 29, N-alpha-[(S)-4-Carboxy-4-(19-carboxynonadecanoylamino)butyryl]-[Glu1,Glu14,His17]-pramlintide] ({C20 diacid-γGlu}-ECNTATCATQRLAEFLHHSSNNFGPILPPTNVGSNTY-NH2; disulfide 2-7 (inferred); C-terminus assumed)
Food intake reduction 0-24 h 3 nmol/kg (%): 15%
Food intake reduction 24-48 h 3 nmol/kg (%): 5%

CC[C@H](C)[C@H](NC(=O)[C@@H]1CCCN1C(=O)CNC(=O)[C@H](Cc1ccccc1)NC(=O)[C@H](CC(N)=O)NC(=O)[C@H](CC(N)=O)NC(=O)[C@H](CO)NC(=O)[C@H](CO)NC(=O)[C@H](Cc1c[nH]cn1)NC(=O)[C@H](Cc1c[nH]cn1)NC(=O)[C@H](CC(C)C)NC(=O)[C@H](Cc1ccccc1)NC(=O)[C@H](CCC(=O)O)NC(=O)[C@H](C)NC(=O)[C@H](CC(C)C)NC(=O)[C@H](CCCNC(=N)N)NC(=O)[C@H](CCC(N)=O)NC(=O)[C@@H](NC(=O)[C@H](C)NC(=O)[C@@H]1CSSC[C@H](NC(=O)[C@H](CCCCN)NC(=O)[C@H](CCC(=O)O)NC(=O)CC[C@H](NC(=O)CCCCCCCCCCCCCCCCC(=O)O)C(=O)O)C(=O)N[C@@H](CC(N)=O)C(=O)N[C@@H]([C@@H](C)O)C(=O)N[C@@H](C)C(=O)N[C@@H]([C@@H](C)O)C(=O)N1)[C@@H](C)O)C(=O)N[C@@H](CC(C)C)C(=O)N1CCC[C@H]1C(=O)N1CCC[C@H]1C(=O)N[C@H](C(=O)N[C@@H](CC(N)=O)C(=O)N[C@H](C(=O)NCC(=O)N[C@@H](CO)C(=O)N[C@@H](CC(N)=O)C(=O)N[C@H](C(=O)N[C@@H](Cc1ccc(O)cc1)C(N)=O)[C@@H](C)O)C(C)C)[C@@H](C)O [Example 42, N-alpha-[(S)-4-Carboxy-4-(17-carboxyheptadecanoylamino)butyryl]-Glu-[Glu14,His17]-pramlintide] ({C18 diacid-γGlu}-EKCNTATCATQRLAEFLHHSSNNFGPILPPTNVGSNTY-NH2; disulfide 3-8)
Food intake reduction 0-24 h 3 nmol/kg (%): 45%
Food intake reduction 24-48 h 3 nmol/kg (%): 5%

CC[C@H](C)[C@H](NC(=O)[C@@H]1CCCN1C(=O)CNC(=O)[C@H](Cc1ccccc1)NC(=O)[C@H](CC(N)=O)NC(=O)[C@H](CC(N)=O)NC(=O)[C@H](CO)NC(=O)[C@H](CO)NC(=O)[C@H](Cc1c[nH]cn1)NC(=O)[C@H](Cc1c[nH]cn1)NC(=O)[C@H](CC(C)C)NC(=O)[C@H](Cc1ccccc1)NC(=O)[C@H](CCC(=O)O)NC(=O)[C@H](C)NC(=O)[C@H](CC(C)C)NC(=O)[C@H](CCCNC(=N)N)NC(=O)[C@H](CCC(N)=O)NC(=O)[C@@H](NC(=O)[C@H](C)NC(=O)[C@@H]1CSSC[C@H](NC(=O)[C@H](CCCCN)NC(=O)CC[C@H](NC(=O)CCCCCCCCCCCCCCCCC(=O)O)C(=O)O)C(=O)N[C@@H](CC(N)=O)C(=O)N[C@@H]([C@@H](C)O)C(=O)N[C@@H](C)C(=O)N[C@@H]([C@@H](C)O)C(=O)N1)[C@@H](C)O)C(=O)N[C@@H](CC(C)C)C(=O)N1CCC[C@H]1C(=O)N1CCC[C@H]1C(=O)N[C@H](C(=O)N[C@@H](CC(N)=O)C(=O)N[C@H](C(=O)NCC(=O)N[C@@H](CO)C(=O)N[C@@H](CC(N)=O)C(=O)N[C@H](C(=O)N[C@@H](Cc1ccc(O)cc1)C(N)=O)[C@@H](C)O)C(C)C)[C@@H](C)O [Example 46, N-alpha-[(S)-4-Carboxy-4-(17-carboxyheptadecanoylamino)butyryl]-[Glu14,His17]-pramlintide] ({C18 diacid-γGlu}-KCNTATCATQRLAEFLHHSSNNFGPILPPTNVGSNTY-NH2; disulfide 2-7 (inferred); C-terminus assumed)
Food intake reduction 0-24 h 3 nmol/kg (%): 54%
Food intake reduction 24-48 h 3 nmol/kg (%): 27%

CC[C@H](C)[C@H](NC(=O)[C@@H]1CCCN1C(=O)CNC(=O)[C@H](Cc1ccccc1)NC(=O)[C@H](CC(N)=O)NC(=O)[C@H](CC(N)=O)NC(=O)[C@H](CO)NC(=O)[C@H](CO)NC(=O)[C@H](Cc1c[nH]cn1)NC(=O)[C@H](Cc1c[nH]cn1)NC(=O)[C@H](CC(C)C)NC(=O)[C@H](Cc1ccccc1)NC(=O)[C@H](CCC(=O)O)NC(=O)[C@H](C)NC(=O)[C@H](CC(C)C)NC(=O)[C@H](CCCNC(=N)N)NC(=O)[C@H](CCC(N)=O)NC(=O)[C@@H](NC(=O)[C@H](C)NC(=O)[C@@H]1CSSC[C@H](NC(=O)[C@H](CCCCN)NC(=O)[C@H](CCC(=O)O)NC(=O)CC[C@H](NC(=O)CCCCCCCCCCCCCCCCCCC(=O)O)C(=O)O)C(=O)N[C@@H](CC(N)=O)C(=O)N[C@@H]([C@@H](C)O)C(=O)N[C@@H](C)C(=O)N[C@@H]([C@@H](C)O)C(=O)N1)[C@@H](C)O)C(=O)N[C@@H](CC(C)C)C(=O)N1CCC[C@H]1C(=O)N1CCC[C@H]1C(=O)N[C@H](C(=O)N[C@@H](CC(N)=O)C(=O)N[C@H](C(=O)NCC(=O)N[C@@H](CO)C(=O)N[C@@H](Cc1c[nH]cn1)C(=O)N[C@H](C(=O)N[C@@H](Cc1ccc(O)cc1)C(N)=O)[C@@H](C)O)C(C)C)[C@@H](C)O [Example 56, N-alpha-[(S)-4-Carboxy-4-(19-carboxynonadecanoylamino)butyryl]-Glu-[Glu14,His17,His35]-pramlintide] ({C20 diacid-γGlu}-EKCNTATCATQRLAEFLHHSSNNFGPILPPTNVGSHTY-NH2; disulfide 3-8)
Food intake reduction 0-24 h 3 nmol/kg (%): 46%
Food intake reduction 24-48 h 3 nmol/kg (%): 21%

CC[C@H](C)[C@H](NC(=O)[C@@H]1CCCN1C(=O)CNC(=O)[C@H](Cc1ccccc1)NC(=O)[C@H](CC(N)=O)NC(=O)[C@H](CC(N)=O)NC(=O)[C@H](CO)NC(=O)[C@H](CO)NC(=O)[C@H](Cc1c[nH]cn1)NC(=O)[C@H](Cc1c[nH]cn1)NC(=O)[C@H](CC(C)C)NC(=O)[C@H](Cc1ccccc1)NC(=O)[C@H](CCC(=O)O)NC(=O)[C@H](C)NC(=O)[C@H](CC(C)C)NC(=O)[C@H](CCCNC(=N)N)NC(=O)[C@H](CCC(N)=O)NC(=O)[C@@H](NC(=O)[C@H](C)NC(=O)[C@@H]1CSSC[C@H](NC(=O)[C@H](Cc2c[nH]cn2)NC(=O)CC[C@H](NC(=O)CCCCCCCCCCCCCCCCCCC(=O)O)C(=O)O)C(=O)N[C@@H](CC(N)=O)C(=O)N[C@@H]([C@@H](C)O)C(=O)N[C@@H](C)C(=O)N[C@@H]([C@@H](C)O)C(=O)N1)[C@@H](C)O)C(=O)N[C@@H](CC(C)C)C(=O)N1CCC[C@H]1C(=O)N1CCC[C@H]1C(=O)N[C@H](C(=O)N[C@@H](CC(N)=O)C(=O)N[C@H](C(=O)NCC(=O)N[C@@H](CO)C(=O)N[C@@H](CC(N)=O)C(=O)N[C@H](C(=O)N1CCC[C@H]1C(N)=O)[C@@H](C)O)C(C)C)[C@@H](C)O [Example 84, N-alpha-[(S)-4-Carboxy-4-(19-carboxynonadecanoylamino)butyryl]-[His1,Glu14,His17,Pro37]-pramlintide] ({C20 diacid-γGlu}-HCNTATCATQRLAEFLHHSSNNFGPILPPTNVGSNTP-NH2; disulfide 2-7 (inferred))
Food intake reduction 0-24 h 3 nmol/kg (%): 68%
Food intake reduction 24-48 h 3 nmol/kg (%): 67%

CC[C@H](C)[C@H](NC(=O)[C@@H]1CCCN1C(=O)CNC(=O)[C@H](Cc1ccccc1)NC(=O)[C@H](CC(N)=O)NC(=O)[C@H](CC(N)=O)NC(=O)[C@H](CO)NC(=O)[C@H](CO)NC(=O)[C@H](CCCNC(=N)N)NC(=O)[C@H](Cc1c[nH]cn1)NC(=O)[C@H](CC(C)C)NC(=O)[C@H](Cc1ccccc1)NC(=O)[C@H](CCC(=O)O)NC(=O)[C@H](C)NC(=O)[C@H](CC(C)C)NC(=O)[C@H](CCCNC(=N)N)NC(=O)[C@H](CCC(N)=O)NC(=O)[C@@H](NC(=O)[C@H](C)NC(=O)[C@@H]1CSSC[C@H](NC(=O)[C@H](CCCN)NC(=O)[C@@H](CCCNC(=N)N)NC(=O)[C@@H](CCCNC(=N)N)NC(=O)COCCOCCNC(=O)COCCOCCNC(=O)CC[C@H](NC(=O)CCCCCCCCCCCCCCCCC(=O)O)C(=O)O)C(=O)N[C@@H](CC(N)=O)C(=O)N[C@@H]([C@@H](C)O)C(=O)N[C@@H](C)C(=O)N[C@@H]([C@@H](C)O)C(=O)N1)[C@@H](C)O)C(=O)N[C@@H](CC(C)C)C(=O)N1CCC[C@H]1C(=O)N1CCC[C@H]1C(=O)N[C@H](C(=O)N[C@@H](CC(N)=O)C(=O)N[C@H](C(=O)NCC(=O)N[C@@H](CO)C(=O)N[C@@H](CC(N)=O)C(=O)N[C@H](C(=O)N[C@@H](Cc1ccc(O)cc1)C(N)=O)[C@@H](C)O)C(C)C)[C@@H](C)O [Example 120, N-alpha-[2-(2-{2-[2-(2-{2-[(S)-4-Carboxy-4-(17-carboxyheptadecanoylamino)butyrylamino]ethoxy}ethoxy)acetylamino]ethoxy}ethoxy)acetyl]-D-Arg-D-Arg-[Orn1,Glu14,His17,Arg18]-pramlintide] ({C18 diacid-γGlu-AEEA-AEEA}-[dR][dR][Orn]CNTATCATQRLAEFLHRSSNNFGPILPPTNVGSNTY-NH2; disulfide 4-9 (inferred))
Food intake reduction 0-24 h 3 nmol/kg (%): 53%
Food intake reduction 24-48 h 3 nmol/kg (%): 2%
